This note sets out measurements from patent US20260167656A1, “PHOSPHORAMIDATE COMPOUNDS AND USES THEREOF” (ALLORION THERAPEUTICS INC, priority 2022, published 2026).

Assay [1] concerns non-small cell lung cancer cell line H460. Kind of assay: H460 proliferation assay in the presence of 3 uM ASP9521 (AKR1C3 specific inhibitor). Format: cell-based, human. As to conditions: H460 cells, CellTiter-Glo, 72 hours, in the presence of 3 uM ASP9521 added 4 hours prior to compounds; read-out: CTG H460: Avg IC50 (nM) [Assay Condition: ASP9521]. The procedure, abridged:
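H460 cells pre-incubated 24 h, then exposed to compounds for 72 h at 37 °C, 5% CO2. Viability read by CellTiter-Glo. ASP9521 (3 uM, AKR1C3 inhibitor) added 4 h before compounds.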
(In general: Cellular ATP, detected with luciferase, serves as a proxy for viable cell number.)

Assay [2] has the same test system. Kind of assay: In vitro human cancer cell line cytotoxicity (proliferation) assay in H460, CellTiter-Glo, 72 hours. Format: cell-based. As to conditions: DMSO condition (no AKR1C3 inhibitor), read-out: CTG H460: Avg IC50 (nM) [Assay Condition: DMSO]. The procedure, abridged: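 H460 cells were seeded at 3×10^3 per well and grown 24 h at 37 °C, 5% CO2 before compound addition from 10 mM DMSO stocks. After 72 h further incubation, viability was measured by CellTiter-Glo, and IC50 values in nM were derived from the proliferation data.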

[3] abbreviates: Homo sapiens, NCI-H460, 72 h, H460 cells.

A word on the IC50: it is the concentration that gives 50% inhibition. Take `O=C1CCCN1c1cc(Oc2c([N+](=O)[O-])ccc3c2CC[C@H]3OP(=O)(N2CC2)N2CC2)ccc1F` [Example 428]: the figures for the IC50 in assay [1] and in assay [2] (H460 cells) were 1200 nM and below 10 nM, respectively.

As for `CC(OP(=O)(N1C[C@H]1C)N1C[C@H]1C)c1ccc([N+](=O)[O-])c(Oc2cccc(C(=O)N(C)C)c2)c1` (some centres unmarked) [Example 212], the IC50 in assay [1] was 958 nM; in assay [2] (H460 cells) it was below 10 nM.

Take `CC1(C)CN(c2cccc(Oc3c([N+](=O)[O-])ccc4c3CCC4OP(=O)(N3CC3)N3CC3)c2)C(=O)O1` (racemic) [Example 416]: the IC50 was 275 nM in assay [1] and below 10 nM in assay [2] (H460 cells).

Turning to `O=C(c1cccc(Oc2c([N+](=O)[O-])ccc3c2CCC3OP(=O)(N2CC2)N2CC2)c1)N1CCCC1` (centres unmarked) [Example 99], the IC50 in assay [1] is 1010 nM; in assay [2] (setting [3]) it was below 10 nM.

Take `Cc1cnc(-c2cccc(Oc3c([N+](=O)[O-])ccc4c3CC[C@@H]4OP(=O)(N3CC3)N3CC3)c2)s1` [Example 342]: the IC50 in assay [1] is 4270 nM; in assay [2] (setting [3]), 10 to 50 nM.

For `CC(OP(=O)(N1C[C@H]1C)N1C[C@H]1C)c1ccc([N+](=O)[O-])c(Oc2ccc(-c3ccc(F)cn3)c(F)c2)c1` (some centres unmarked) [Example 222], the IC50 in assay [1] was 3260 nM; in assay [2] (setting [3]), 10 to 50 nM.

Turning to `O=[N+]([O-])c1ccc2c(c1Oc1ccc(-c3ccccc3)cc1)OCCC2OP(=O)(N1CC1)N1CC1` (centres unmarked) [Example 135], the figures for the IC50 in assay [1] and in assay [2] (H460 cells) were 482 nM and below 10 nM, respectively.

Turning to `O=[N+]([O-])c1ccc2c(c1Oc1ccc(-c3ccc(F)cn3)cc1)CCC2OP(=O)(N1CC1)N1CC1` (racemic) [Example 276], the IC50 is 1340 nM in assay [1] and below 10 nM in assay [2] (H460 cells).

Consider `O=[N+]([O-])c1ccc2c(c1Oc1cccc(-c3cn[nH]c3)c1)CC[C@@H]2OP(=O)(N1CC1)N1CC1` [Example 369], for which the IC50 was 938 nM in assay [1] and below 10 nM in assay [2] (setting [3]).

In the case of `CSc1ccc(Oc2c([N+](=O)[O-])ccc3c2CC[C@@H]3OP(=O)(N2CC2)N2CC2)cc1` [Example 466], the IC50 in assay [1] was 975 nM; in assay [2] (H460 cells), below 10 nM.

In the case of `O=C(c1ccc(Oc2cc3c(cc2[N+](=O)[O-])CCC3OP(=O)(N2CC2)N2CC2)cc1)N1CCOCC1` (centres unmarked) [Example 160], the IC50 in assay [1] is 270 nM; in assay [2] (setting [3]) it was below 10 nM.

Take `C[C@H](OP(=O)(N1CC1)N1CC1)c1cc2cc(Oc3cccc(C4CC4)c3)c([N+](=O)[O-])cc2o1` [Example 562]: the results for the IC50 in assay [1] and in assay [2] (H460 cells) were 3040 nM and below 10 nM, respectively.

For `CN(C)C(=O)c1cccc(Oc2cc3cc(COP(=O)(N4CC4)N4CC4)oc3cc2[N+](=O)[O-])c1` [Example 229, (5-(3-(dimethylcarbamoyl)phenoxy)-6-nitrobenzofuran-2-yl)methyl di(aziridin-1-yl)phosphinate], the IC50 is 515 nM in assay [1] and below 10 nM in assay [2] (setting [3]).

As to `Cn1cccc(-c2ccc(Oc3c([N+](=O)[O-])ccc4c3CCC4OP(=O)(N3CC3)N3CC3)cc2)c1=O` (centres unmarked) [Example 48], the IC50 in assay [1] is 1010 nM; in assay [2] (H460 cells), at least 100 nM.

Take `O=[N+]([O-])c1ccc2c(c1Oc1cccc(-n3ccc(C4CC4)n3)c1)CCC2OP(=O)(N1CC1)N1CC1` (centres unmarked) [Example 116]: the IC50 in assay [1] was 5560 nM; in assay [2] (H460 cells) it was 10 to 50 nM.

As for `C[C@H](OP(=O)(N1CC1)N1CC1)c1cc2cc(Oc3cccc(C(=O)N4CCC(F)(F)CC4)c3)c([N+](=O)[O-])cc2o1` [Example 563], the IC50 in assay [1] is 2110 nM; in assay [2] (H460 cells) it was below 10 nM.

As to `O=C(c1cc(Oc2c([N+](=O)[O-])ccc3c2CC[C@@H]3OP(=O)(N2CC2)N2CC2)ccc1F)N1CCCC1` [Example 259], the IC50 in assay [1] was 1550 nM; in assay [2] (H460 cells) it was below 10 nM.

In the case of `O=[N+]([O-])c1ccc2c(c1Oc1ccc(F)c(-n3ncnn3)c1)CC[C@@H]2OP(=O)(N1CC1)N1CC1` [Example 441], the IC50 in assay [1] is 158 nM; in assay [2] (setting [3]) it was below 10 nM.

In the case of `Cc1ccnn1-c1cc(Oc2c([N+](=O)[O-])ccc3c2CC[C@@H]3OP(=O)(N2CC2)N2CC2)ccc1F` [Example 433], the results for the IC50 in assay [1] and in assay [2] (setting [3]) were 2590 nM and below 10 nM, respectively.

`Cn1nc(-c2cccc(Oc3c([N+](=O)[O-])ccc4c3CC[C@@H]4OP(=O)(N3CC3)N3CC3)c2)cc1F` [Example 375]: the IC50 in assay [1] is 2520 nM; in assay [2] (setting [3]) it was below 10 nM.

Turning to `CS(=O)(=O)c1ccc(Oc2c([N+](=O)[O-])ccc3c2CCC3OP(=O)(N2CC2)N2CC2)cc1` (centres unmarked) [Example 506], the figures for the IC50 in assay [1] and in assay [2] (H460 cells) were 625 nM and below 10 nM, respectively.

For the compound `O=[N+]([O-])c1ccc2c(c1Oc1ccc(-c3ccc(F)cn3)cc1)CC[C@H]2OP(=O)(N1CC1)N1CC1` [Example 278], the IC50 in assay [1] is 1560 nM; in assay [2] (H460 cells) it was below 10 nM.

As to `O=[N+]([O-])c1ccc2c(c1Oc1ccc(-c3ccccc3)cc1)OCCC2OP(=O)(N1CC1)N1CC1` (centres unmarked) [Example 134], the IC50 is 1510 nM in assay [1] and 10 to 50 nM in assay [2] (setting [3]).

On to `O=[N+]([O-])c1ccc2c(c1Oc1ccc(O)c(-c3ncc(F)cn3)c1)CCC2OP(=O)(N1CC1)N1CC1` (centres unmarked) [Example 338], for which the IC50 in assay [1] was 5560 nM; in assay [2] (H460 cells) it was 10 to 50 nM.

In the case of `O=[N+]([O-])c1ccc2c(c1Oc1cccc(-c3cnc[nH]3)c1)CC[C@@H]2OP(=O)(N1CC1)N1CC1` [Example 362], the IC50 in assay [1] is 1660 nM; in assay [2] (setting [3]) it was below 10 nM.

Consider `Cc1ncc(-c2cccc(Oc3c([N+](=O)[O-])ccc4c3CC[C@@H]4OP(=O)(N3CC3)N3CC3)c2)[nH]1` [Example 344], for which the IC50 was 1510 nM in assay [1] and below 10 nM in assay [2] (setting [3]).

Turning to `O=[N+]([O-])c1ccc2c(c1Oc1ccc(F)c(-n3cccn3)c1)CC[C@@H]2OP(=O)(N1CC1)N1CC1` (single isomer, unassigned) [Example 403], the results for the IC50 in assay [1] and in assay [2] (setting [3]) were 1460 nM and below 10 nM, respectively.

Take `Cn1cc(-c2ccc(Oc3cc4c(cc3[N+](=O)[O-])CCC4OP(=O)(N3CC3)N3CC3)cc2)cn1` (centres unmarked) [Example 181]: the IC50 is 942 nM in assay [1] and below 10 nM in assay [2] (H460 cells).

For `O=[N+]([O-])c1ccc2c(c1Oc1cccc(-c3ccc(F)cn3)c1)CCC2OP(=O)(N1CC1)N1CC1` (centres unmarked) [Example 323], the IC50 in assay [1] is 2690 nM; in assay [2] (H460 cells), below 10 nM.

On to `O=[N+]([O-])c1ccc2c(c1Oc1cccc(-c3ncccn3)c1)CCC2OP(=O)(N1CC1)N1CC1` (centres unmarked) [Example 84], for which the values for the IC50 in assay [1] and in assay [2] (setting [3]) were 1020 nM and 10 to 50 nM, respectively.

As to `O=[N+]([O-])c1cc2c(cc1Oc1ccc(-c3ccccc3)nc1)C(OP(=O)(N1CC1)N1CC1)CC2` (centres unmarked) [Example 193], the IC50 was 880 nM in assay [1] and below 10 nM in assay [2] (H460 cells).

With `Cc1nsc(-c2cccc(Oc3c([N+](=O)[O-])ccc4c3CC[C@@H]4OP(=O)(N3CC3)N3CC3)c2)n1` [Example 292, (S)-4-(3-(3-methyl-1,2,4-thiadiazol-5-yl)phenoxy)-5-nitro-2,3-dihydro-1H-inden-1-yl di(aziridin-1-yl)phosphinate], the IC50 in assay [1] is 1810 nM; in assay [2] (Homo sapiens, NCI-H460, H460 cells), below 10 nM.

As to `O=C(c1cccc(Oc2c([N+](=O)[O-])ccc3c2CCC3OP(=O)(N2CC2)N2CC2)c1)N1CCC1` (centres unmarked) [Example 97], the IC50 was 497 nM in assay [1] and below 10 nM in assay [2] (setting [3]).

In the case of `Cn1c(=O)oc2ccc(Oc3c([N+](=O)[O-])ccc4c3CCC4OP(=O)(N3CC3)N3CC3)cc21` (single isomer, unassigned) [Example 64], the IC50 is 722 nM in assay [1] and below 10 nM in assay [2] (setting [3]).

Consider `O=C(NC1CC1)c1cccc(Oc2c([N+](=O)[O-])ccc3c2CCC3OP(=O)(N2CC2)N2CC2)c1` (centres unmarked) [Example 234], for which the IC50 in assay [1] is 865 nM; in assay [2] (setting [3]) it was below 10 nM.

Consider `O=[N+]([O-])c1ccc2c(c1Oc1ccc(F)c(OCC3CC3)c1)CC[C@@H]2OP(=O)(N1CC1)N1CC1` [Example 489], for which the IC50 in assay [1] was 1660 nM; in assay [2] (setting [3]), below 10 nM.

For `O=[N+]([O-])c1ccc2c(c1Oc1ccc3c(c1)OCO3)CC[C@@H]2OP(=O)(N1CC1)N1CC1` [Example 394], the IC50 in assay [1] was 388 nM; in assay [2] (setting [3]) it was below 10 nM.

For `CNC(=O)c1ccc(Oc2c([N+](=O)[O-])ccc3c2CCC3OP(=O)(N2CC2)N2CC2)cc1` (centres unmarked) [Example 37], the IC50 is 178 nM in assay [1] and below 10 nM in assay [2] (H460 cells).

As to `C[C@@H](OP(=O)(N1CC1)N1CC1)c1cc2cc(Oc3cccc(C(=O)N(C)C)c3)c([N+](=O)[O-])cc2o1` [Example 566], the IC50 in assay [1] is 6380 nM; in assay [2] (H460 cells), 10 to 50 nM.

As for `O=[N+]([O-])c1ccc2c(c1Oc1ccc(F)c(-c3ncns3)c1)CC[C@@H]2OP(=O)(N1CC1)N1CC1` [Example 347], the IC50 in assay [1] is 1300 nM; in assay [2] (setting [3]) it was below 10 nM.

Consider `O=[N+]([O-])c1ccc2c(c1Oc1ccc(F)c(-c3ncc(F)cn3)c1)CCC2OP(=O)(N1CC1)N1CC1` (centres unmarked) [Example 329], for which the figures for the IC50 in assay [1] and in assay [2] (H460 cells) were 2440 nM and below 10 nM, respectively.

For the compound `O=[N+]([O-])c1ccc2c(c1Oc1ccc(-c3ccc(Cl)cc3)cc1)CCC2OP(=O)(N1CC1)N1CC1` (centres unmarked) [Example 45], the values for the IC50 in assay [1] and in assay [2] (H460 cells) were 5550 nM and 10 to 50 nM, respectively.

In the case of `O=[N+]([O-])c1ccc2c(c1Oc1ccc(-c3ncc(F)cn3)cc1)CC[C@H]2OP(=O)(N1CC1)N1CC1` (single isomer, unassigned) [Example 266], the IC50 in assay [1] is 716 nM; in assay [2] (setting [3]) it was 10 to 50 nM.
